# Entries after “also recorded” stand apart in the source; their conditions may differ.
# Columns and labels:
# [1] = tested on: HEK‐TREx control (null) cells; experiment: Manual whole-cell patch clamp on control cells; assay type: cell-based, human; settings: 10 μM, HEK-TREx cells without PIEZO1 transfection
# Procedure: (§1) For manual patch clamp, macroscopic transmembrane ionic currents of mPIEZO1 HEK‐TREx cells (or control HEK‐TREx cells) were recorded using the standard whole‐cell configuration for patch clamp in voltage‐clamp mode. For studies of HEK 293 cells overexpressing PIEZO2 (or control HEK 293 cells), the outside‐out patch configuration was used in voltage‐clamp mode. All recordings were made using an Axopatch 200B amplifier (Axon Instruments, Inc., USA) equipped with Digidata 1550B hosted by a PC running pClamp 10.7 software (Molecular Devices, USA) at room temperature. The cells were maintained during the experiment in an external salt buffer solution (SBS) of the following composition: 135 mM NaCl, 5 mM KCl, 1.5 mM CaCl2, 1.2 mM MgCl2, 8 mM D‐glucose and 10 mM HEPES (titrated to pH 7.4 with NaOH). […] For outside‐out experiments, Na2ATP and Na2GTP were omitted. For whole‐cell experiments, cells were held at 0 mV and current amplitude was monitored by application of ramp voltage protocol from −100 to +100 mV at 10 s intervals. Currents were measured at −100 and +100 mV. Test compounds were applied in the external solution using a bath perfusion system. SBS flow was applied to the cells for 1 min before the addition of compounds. […] Data were analysed and plotted using pClamp 10.7 and Microcal Origin 2018 (Microcal Software, USA).
# mPIEZO1 = target: T1, mPIEZO1 (Mus musculus, UniProt E2JF22); experiment: Manual whole-cell patch clamp on mPIEZO1-TREx cells; assay type: cell-based; settings: 10 μM, ramp −100 to +100 mV
# T1 construct: expressed in transfected cells
# Procedure: as §1
# [2] = tested on: 30 proteins including ion channels and receptors; experiment: Eurofins Hit Profiling Screen PP70: remaining targets; assay type: binding; settings: 5 μM; targets other than A2A and EP4
# Procedure: (§2) These experiments were performed by Eurofins Scientific, and the methods below are from this company's information. Membrane protein/membrane amounts may have varied, and the concentrations used were adjusted as necessary. KC289 was tested at 5 μM.
# [3] = target: T2, Human recombinant prostanoid EP4 receptors (Homo sapiens, UniProt P35408); experiment: Eurofins Hit Profiling Screen PP70: prostanoid EP4 receptor binding; settings: 5 μM
# T2 construct: host or cells: Chem-1 cells
# Procedure: as §2
# Human recombinant prostanoid EP4 receptors expressed in Chem‐1 cells were used in modified MES buffer pH 6.0. A 3 μg·ml^−1 (see footnote 1) aliquot was incubated with 1 nM [^3H]PGE2 for 120 min at 25°C. Non‐specific binding was estimated in the presence of 10 μM PGE2 . Receptors were filtered and washed, and the filters were then counted to determine [^3H]PGE2 specifically bound.
# mouse PIEZO2 (mPIEZO2) = tested on: mouse PIEZO2 (mPIEZO2); parameters: method as in Syeda et al., 2015; settings: mPIEZO2 overexpressed in HEK 293 cells; ref Syeda et al., 2015; cited from earlier work
# T1 sequence (E2JF22 whole entry): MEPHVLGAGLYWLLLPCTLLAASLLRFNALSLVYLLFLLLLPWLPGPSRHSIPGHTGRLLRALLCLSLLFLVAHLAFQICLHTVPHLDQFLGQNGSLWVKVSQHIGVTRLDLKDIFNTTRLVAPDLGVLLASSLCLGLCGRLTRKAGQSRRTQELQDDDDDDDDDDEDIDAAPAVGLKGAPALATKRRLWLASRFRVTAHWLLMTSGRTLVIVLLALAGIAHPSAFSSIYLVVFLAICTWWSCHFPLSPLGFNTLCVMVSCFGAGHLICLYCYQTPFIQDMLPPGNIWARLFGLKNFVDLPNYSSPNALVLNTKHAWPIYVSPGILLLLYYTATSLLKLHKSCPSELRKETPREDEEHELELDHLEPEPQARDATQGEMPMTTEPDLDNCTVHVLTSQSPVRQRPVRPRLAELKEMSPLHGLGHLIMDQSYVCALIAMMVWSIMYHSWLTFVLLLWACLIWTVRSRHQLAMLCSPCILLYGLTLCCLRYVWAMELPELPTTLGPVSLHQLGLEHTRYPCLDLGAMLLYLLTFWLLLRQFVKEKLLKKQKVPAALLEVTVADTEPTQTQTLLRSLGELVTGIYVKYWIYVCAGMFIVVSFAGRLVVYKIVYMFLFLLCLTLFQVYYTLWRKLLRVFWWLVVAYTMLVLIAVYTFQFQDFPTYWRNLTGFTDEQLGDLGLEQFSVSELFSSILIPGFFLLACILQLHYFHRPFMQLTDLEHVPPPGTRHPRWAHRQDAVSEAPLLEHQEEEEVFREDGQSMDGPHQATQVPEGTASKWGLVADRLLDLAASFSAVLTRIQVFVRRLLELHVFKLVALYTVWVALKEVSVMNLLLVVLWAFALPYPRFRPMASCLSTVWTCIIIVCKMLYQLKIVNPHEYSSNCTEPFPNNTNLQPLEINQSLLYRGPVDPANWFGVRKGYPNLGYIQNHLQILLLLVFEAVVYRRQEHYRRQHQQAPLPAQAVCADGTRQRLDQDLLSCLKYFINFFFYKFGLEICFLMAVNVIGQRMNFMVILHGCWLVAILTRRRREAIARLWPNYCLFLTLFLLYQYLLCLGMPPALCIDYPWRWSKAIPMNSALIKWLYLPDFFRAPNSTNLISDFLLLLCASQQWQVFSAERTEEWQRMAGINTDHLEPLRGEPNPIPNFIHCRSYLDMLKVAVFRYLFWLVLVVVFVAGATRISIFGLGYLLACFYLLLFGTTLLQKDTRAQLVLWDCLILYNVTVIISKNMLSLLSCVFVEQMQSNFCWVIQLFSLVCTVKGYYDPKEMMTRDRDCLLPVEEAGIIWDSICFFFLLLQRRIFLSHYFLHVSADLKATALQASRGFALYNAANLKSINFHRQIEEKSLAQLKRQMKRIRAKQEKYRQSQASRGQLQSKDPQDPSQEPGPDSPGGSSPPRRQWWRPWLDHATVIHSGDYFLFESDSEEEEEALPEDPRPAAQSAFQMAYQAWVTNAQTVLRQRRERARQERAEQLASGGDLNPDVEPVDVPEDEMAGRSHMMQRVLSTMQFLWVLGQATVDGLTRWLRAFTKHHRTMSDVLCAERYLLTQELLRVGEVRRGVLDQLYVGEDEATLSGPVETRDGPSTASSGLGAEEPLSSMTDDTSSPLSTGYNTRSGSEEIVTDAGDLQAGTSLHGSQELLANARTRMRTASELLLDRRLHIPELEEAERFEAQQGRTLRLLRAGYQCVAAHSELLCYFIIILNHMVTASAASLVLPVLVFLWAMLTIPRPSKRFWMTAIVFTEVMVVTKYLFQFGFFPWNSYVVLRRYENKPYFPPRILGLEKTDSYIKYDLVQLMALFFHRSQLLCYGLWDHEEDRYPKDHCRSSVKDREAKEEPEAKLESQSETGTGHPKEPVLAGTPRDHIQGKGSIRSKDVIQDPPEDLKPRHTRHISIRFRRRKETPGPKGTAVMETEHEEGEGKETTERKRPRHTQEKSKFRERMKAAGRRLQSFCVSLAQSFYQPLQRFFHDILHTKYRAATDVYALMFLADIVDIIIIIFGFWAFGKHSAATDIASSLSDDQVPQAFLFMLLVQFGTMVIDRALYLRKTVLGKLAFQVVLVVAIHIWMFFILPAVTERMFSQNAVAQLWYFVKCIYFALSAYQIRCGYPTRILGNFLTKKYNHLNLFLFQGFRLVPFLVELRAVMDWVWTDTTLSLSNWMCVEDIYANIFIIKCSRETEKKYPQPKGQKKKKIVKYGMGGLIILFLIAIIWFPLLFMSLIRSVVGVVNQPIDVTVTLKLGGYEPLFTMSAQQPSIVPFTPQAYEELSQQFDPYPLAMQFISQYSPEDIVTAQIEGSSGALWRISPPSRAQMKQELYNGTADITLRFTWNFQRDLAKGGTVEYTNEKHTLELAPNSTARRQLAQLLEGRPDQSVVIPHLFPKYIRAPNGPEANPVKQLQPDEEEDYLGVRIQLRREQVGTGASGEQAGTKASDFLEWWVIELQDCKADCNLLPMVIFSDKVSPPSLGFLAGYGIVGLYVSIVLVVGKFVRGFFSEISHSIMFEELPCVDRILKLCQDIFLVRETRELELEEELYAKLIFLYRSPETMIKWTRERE
# T2 sequence (P35408 whole entry): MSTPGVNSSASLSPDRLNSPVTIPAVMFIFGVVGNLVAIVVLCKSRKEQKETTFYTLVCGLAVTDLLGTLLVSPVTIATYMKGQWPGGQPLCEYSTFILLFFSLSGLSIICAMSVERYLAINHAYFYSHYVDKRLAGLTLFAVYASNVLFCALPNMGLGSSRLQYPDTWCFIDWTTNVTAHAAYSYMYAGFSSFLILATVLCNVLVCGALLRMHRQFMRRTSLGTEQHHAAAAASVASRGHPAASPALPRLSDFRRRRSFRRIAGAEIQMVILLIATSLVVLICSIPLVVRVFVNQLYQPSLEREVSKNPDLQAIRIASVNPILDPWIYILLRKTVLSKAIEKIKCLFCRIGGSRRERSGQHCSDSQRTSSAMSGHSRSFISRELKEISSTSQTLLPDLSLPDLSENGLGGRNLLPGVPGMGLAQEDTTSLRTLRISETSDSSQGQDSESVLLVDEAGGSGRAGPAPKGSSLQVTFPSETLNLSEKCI
compound,measurement,setting,value
O=C(O)c1ccc(-c2nnc(SCc3c(Cl)cccc3Cl)s2)cc1 [KC159],Whole-cell current in null cells,[1],not null cells
same,Whole-cell current,mPIEZO1,increases current
O=C([O-])c1ccc(-c2nnc(SCc3c(Cl)cccc3Cl)s2)cc1.[K+] [KC289],Binding to the other proteins of the screen,[2],little or no binding
same,Binding to prostanoid EP4 receptors,[3],modest interaction
"Clc1cccc(Cl)c1CSc1nnc(-c2cnccn2)s1 [Yoda1, 2‐[5‐[[(2,6‐dichlorophenyl)methyl]thio]‐1,3,4‐thiadiazol‐2‐yl]pyrazine]",Activation of PIEZO2,mouse PIEZO2 (mPIEZO2),does not activate; also recorded: not to activate
